# Measured values from patent US20100197797A1 (priority 2009, published 2010).
# Key:
# healthy subjects [1] = test: Placebo-controlled clinical pharmacology study, blood pressure at supratherapeutic doses; format: in vivo, human; conditions: 300 mg twice daily, 12 hour steady state dosing interval
# Solubility = format: physicochemical
# patients = test: Spontaneous / postmarketing reports; format: in vivo, human; conditions: post-marketing, multiple drugs but also milnacipran hydrochloride only
# Description: However, because these adverse reactions were reported voluntarily from a population of uncertain size, it is not always possible to reliably estimate their frequency or establish a causal relationship to drug exposure.
# Human pharmacokinetics = conditions: in vivo
# Procedure: The pharmacokinetic parameters described herein include area under the plasma concentration-time curve (AUC0-t and AUC0-∞), maximum plasma concentration (Cmax), time of maximum plasma concentration (Tmax) and terminal elimination half-life (T1/2). The time of maximum concentration, Tmax, is determined as the time corresponding to Cmax. Area under the plasma concentration-time curve up to the time corresponding to the last measurable concentration (AUC0-t) is calculated by numerical integration using the linear trapezoidal rule as follows: […]
# healthy subjects [2] = test: QTcF interval study, placebo- and positive-controlled; format: in vivo, human; conditions: 600 mg/day
# Description: After baseline and placebo adjustment, the maximum mean QTcF change was 8 ms (2-sided 90% CI, 3-12 ms).
# [3] = Drug interaction studies in healthy adult subjects; format: in vivo, human
# Procedure: The drug interaction studies described below were conducted in healthy adult subjects.
compound,measurement,setting,value
"CCN(CC)C(=O)C1(c2ccccc2)CC1CN.Cl (racemic) [milnacipran hydrochloride, (±)-[1R(S),2S(R)]-2-(aminomethyl)-N,N-diethyl-1-phenylcyclopropanecarboxamide hydrochloride]",mean increase in supine diastolic blood pressure,healthy subjects [1],up to 11.5 mm Hg
same,mean increase in supine systolic blood pressure,healthy subjects [1],up to 10.0 mm Hg
same,solubility,Solubility; chloroform,freely soluble
same,solubility,Solubility; diethyl ether,sparingly soluble
same,solubility,Solubility; ethanol,freely soluble
same,solubility,Solubility; methanol,freely soluble
same,solubility,Solubility; methylene chloride,freely soluble
same,solubility,Solubility; water,freely soluble
same,outcome of acute overdoses,patients,fatal outcomes have been reported
same,effect of food on absorption,Human pharmacokinetics,not affected by food
same,clinical significance of QTcF increase,healthy subjects [2],not considered to be clinically significant
same,maximum mean QTcF change,"healthy subjects [2]; after baseline and placebo adjustment (2-sided 90% CI, 3-12 ms)",8 ms
same,pharmacokinetic interaction with digoxin,"[3]; 200 mg/day and digoxin 0.2 mg/day Lanoxicaps, multiple-dose",no pharmacokinetic interaction
same,change in pharmacokinetics of carbamazepine or its epoxide metabolite,[3]; co-administration with milnacipran hydrochloride,No changes were observed
same,adverse events after switching from clomipramine,"[3]; human, in vivo",an increase in euphoria and postural hypotension
same,hemodynamic adverse effects in combination with digoxin,[3]; intravenously administered digoxin (1 mg),Postural hypotension and tachycardia have been reported
same,effect on pharmacokinetics of lithium,"[3]; multiple doses, 100 mg/day",did not affect
same,pharmacokinetic interaction with lorazepam,[3]; single dose 50 mg and lorazepam 1.5 mg,no pharmacokinetic interaction
